Assay results reported in patent US20240360178A1, “MACROCYCLIC IMMUNOMODULATORS” (Bristol-Myers Squibb Company, priority 2021, published 2024).
Positions of bridges follow the written chain, without caps; N, C: chain ends. Non-standard residues stand in square brackets, D forms with d. Residues, ends and D or L forms follow the SMILES beside them. *: point of attachment. Bip = N[C@@H](Cc1ccc(-c2ccccc2)cc1)C(=O)O; NMeF = CN[C@@H](Cc1ccccc1)C(=O)O; Carboxymethyl = O=C(O)C*; NMeA = CN[C@@H](C)C(=O)O; Sar = CNCC(=O)O

Each molecule was assayed against T1, human PD-1 (Jurkat-PD-1 cells) / PE-labeled human PD-L1-Ig (Homo sapiens, UniProt Q15116) (assay: Jurkat-PD-1 Cell Binding High-Content Screening Assay (CBA); Jurkat hPD1-PDL1 assay). Conditions: Jurkat cell line over-expressing human PD-1; PE-labeled PD-L1-Ig 20 nM final; compound incubated 2 hours at 37° C.; read-out: Jurkat HPD1-PDL1 IC50.
T1 construct: expressed in transfected cells; host or cells: Jurkat cell line over-expressing human PD-1
T1 sequence (Q15116 25-288): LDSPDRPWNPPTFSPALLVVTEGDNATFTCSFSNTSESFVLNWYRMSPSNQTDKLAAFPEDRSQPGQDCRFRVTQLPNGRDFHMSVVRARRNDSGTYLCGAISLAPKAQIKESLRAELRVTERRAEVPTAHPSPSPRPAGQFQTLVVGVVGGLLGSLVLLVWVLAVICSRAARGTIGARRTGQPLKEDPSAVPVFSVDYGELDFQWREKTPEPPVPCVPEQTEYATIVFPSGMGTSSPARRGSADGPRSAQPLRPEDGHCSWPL
How it was run: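 Cell binding by imaging: Jurkat line stably over-expressing human PD-1, compound pre-exposure 2 h at 37° C, PE-conjugated PD-L1-Ig 20 nM final, medium DMEM containing 10% FCS.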

Compared with `CC(C)C[C@@H]1NC(=O)[C@H](Cc2c[nH]c3ccccc23)NC(=O)[C@H](CC(=O)O)NC(=O)[C@H](Cc2ccc(O)cc2)NC(=O)[C@H](Cc2ccccc2)NC(=O)CSC[C@@H](C(=O)NCC(N)=O)NC(=O)[C@H](CO)NC(=O)[C@H](C(C)C)NC(=O)[C@H](CC(C)C)NC(=O)[C@H](CCC(=O)O)NC(=O)CN(C)C(=O)[C@H](C)N(C)C(=O)[C@H](C(C)C)NC(=O)[C@H](Cc2ccc(-c3ccccc3)cc2)NC1=O` [Example 1071] ({CH2CO}-FYDWL[Bip]V[NMeA][Sar]ELVSCG-NH2; thioether N-14), `CC(C)C[C@@H]1NC(=O)[C@H](CC(N)=O)NC(=O)CN(C)C(=O)[C@H](C)N(C)C(=O)[C@H](C(C)C)NC(=O)[C@H](Cc2ccc(-c3ccccc3)cc2)NC(=O)[C@H](C(C)C)NC(=O)[C@H](Cc2c[nH]c3ccccc23)NC(=O)[C@H](CC(=O)O)NC(=O)[C@H](Cc2ccc(O)cc2)NC(=O)[C@H](Cc2ccccc2)NC(=O)CSC[C@@H](C(=O)NCC(N)=O)NC(=O)[C@H](CO)NC(=O)[C@H](C(C)C)NC1=O` [Example 1202] ({CH2CO}-FYDWV[Bip]V[NMeA][Sar]NLVSCG-NH2; thioether N-14) is 2.4-fold lower in IC50: 190 nM for the first, 80 nM for the second. The second is the more potent here.

First: CC(C)C[C@@H]1NC(=O)[C@H](Cc2c[nH]c3ccccc23)NC(=O)[C@H](CC(=O)O)NC(=O)[C@H](Cc2ccc(OCC(=O)O)cc2)NC(=O)[C@H](Cc2ccccc2)NC(=O)CSC[C@@H](C(=O)N[C@@H](C)C(N)=O)NC(=O)[C@H](CO)NC(=O)[C@H](C(C)C)NC(=O)[C@H](CC(C)C)NC(=O)[C@H](CC(N)=O)NC(=O)[C@H]2CCCN2C(=O)[C@H](C)N(C)C(=O)[C@H](C(C)C)NC(=O)[C@H](Cc2ccc(-c3ccccc3)cc2)NC1=O [Example 1029] ({CH2CO}-FY(Carboxymethyl)DWL[Bip]V[NMeA][dP]NLVSCA-NH2; thioether N-14)
Second: CC(C)C[C@@H]1NC(=O)[C@H](Cc2c[nH]c3ccccc23)NC(=O)[C@H](CC(=O)O)NC(=O)[C@H](Cc2ccc(O)cc2)NC(=O)[C@H](Cc2ccccc2)NC(=O)CSC[C@@H](C(=O)N[C@@H](C)C(N)=O)NC(=O)[C@H](CO)NC(=O)[C@H](C(C)C)NC(=O)[C@H](CC(C)C)NC(=O)[C@H](CC(N)=O)NC(=O)CN(C)C(=O)[C@H](C)N(C)C(=O)[C@H](C(C)C)NC(=O)[C@H](Cc2ccc(-c3ccccc3)cc2)NC1=O [Example 1252] ({CH2CO}-FYDWL[Bip]V[NMeA][Sar]NLVSCA-NH2; thioether N-14)
The IC50 of the first is 3.8-fold lower: 50 nM for the first, 190 nM for the second.

First: CC(C)C[C@@H]1NC(=O)CSC[C@@H](C(=O)N[C@@H](C)C(N)=O)NC(=O)[C@H]([C@@H](C)O)NC(=O)[C@H](C(C)C)NC(=O)[C@H](CC(C)C)NC(=O)[C@H](CCCNC(=N)N)NC(=O)[C@H](Cc2ccccc2)N(C)C(=O)[C@H](C)N(C)C(=O)[C@H](CCCNC(=N)N)NC(=O)[C@H](Cc2ccc(-c3ccccc3)cc2)NC(=O)[C@H](C(C)C)NC(=O)[C@H](Cc2c[nH]c3ccccc23)NC(=O)[C@H](CC(=O)O)NC(=O)[C@H](Cc2ccc(O)cc2)NC1=O [Example 1319] ({CH2CO}-LYDWV[Bip]R[NMeA][NMeF]RLVTCA-NH2; thioether N-14)
Second: CC(C)C[C@@H]1NC(=O)[C@H](CCCCN)NC(=O)[C@H](Cc2ccccc2)N(C)C(=O)[C@H](C)N(C)C(=O)[C@H](CCCNC(=N)N)NC(=O)[C@H](Cc2ccc(-c3ccccc3)cc2)NC(=O)[C@H](C(C)C)NC(=O)[C@H](Cc2c[nH]c3ccccc23)NC(=O)[C@H](CC(=O)O)NC(=O)[C@H](Cc2ccc(O)cc2)NC(=O)[C@H](CC(N)=O)NC(=O)CSC[C@@H](C(=O)N[C@@H](C)C(N)=O)NC(=O)[C@H]([C@@H](C)O)NC(=O)[C@H](C(C)C)NC1=O [Example 1385] ({CH2CO}-NYDWV[Bip]R[NMeA][NMeF]KLVTCA-NH2; thioether N-14)
The IC50 of the first is 2.2-fold lower: 130 nM for the first, 280 nM for the second. The first is the more potent here.
